Data taken from ChEMBL document CHEMBL4304811, “Development of a Water-Soluble Indolylmaleimide Derivative IM-93 Showing Dual Inhibition of Ferroptosis and NETosis” (ACS Med Chem Lett, 2019).

What was measured:
[1] = biological target: Serine/threonine-protein kinase STK11 (Homo sapiens) (UniProt Q15831); test: Binding affinity to wild-type human full length LKB1 (M1 to Q433 residues) expressed in bacterial expression system assessed as residual binding level at 10 uM by Kinomescan method relative to control
[2] = biological target: Uncharacterized serine/threonine-protein kinase SBK3 (Homo sapiens) (UniProt P0C264); test: Binding affinity to wild-type human partial length SgK110 (L22 to R329 residues) expressed in bacterial expression system assessed as residual binding level at 10 uM by Kinomescan method relative to control
[3] = biological target: Phosphatidylinositol 4,5-bisphosphate 3-kinase catalytic subunit alpha isoform (Homo sapiens) (UniProt P42336); test: Binding affinity to wild-type human partial length PIK3CA (R108 to N1068 residues) expressed in mammalian expression system assessed as residual binding level at 10 uM by Kinomescan method relative to control
[4] = biological target: Fibroblast growth factor receptor 3 (Homo sapiens) (UniProt P22607); test: Binding affinity to wild-type human partial length FGFR3 (R442 to S771 residues) expressed in bacterial expression system assessed as residual binding level at 10 uM by Kinomescan method relative to control
[5] = test system: Tyrosine-protein kinase ABL1 (Homo sapiens), P00519 [H396P]; test: Binding affinity to human phosphorylated ABL1 H396P mutant (S229 to K512 residues) expressed in mammalian expression system assessed as residual binding level at 10 uM by Kinomescan method relative to control
[6] = biological target: Protein kinase C iota type (Homo sapiens) (UniProt P41743); test: Binding affinity to wild-type human partial length PRKCI (H215 to V587 residues) expressed in mammalian expression system assessed as residual binding level at 10 uM by Kinomescan method relative to control
[7] = biological target: Casein kinase II subunit alpha (Homo sapiens) (UniProt P68400); test: Binding affinity to wild-type human full length CSNK2A1 (M1 to Q391 residues) expressed in mammalian expression system assessed as residual binding level at 10 uM by Kinomescan method relative to control
[8] = test system: Proto-oncogene tyrosine-protein kinase receptor Ret (Homo sapiens), P07949 [M918T]; test: Binding affinity to human partial length RET M918T mutant (E713 to D1014 residues) expressed in bacterial expression system assessed as residual binding level at 10 uM by Kinomescan method relative to control
[9] = biological target: Misshapen-like kinase 1 (Homo sapiens) (UniProt Q8N4C8); test: Binding affinity to wild-type human partial length MINK (M1 to K312 residues) expressed in mammalian expression system assessed as residual binding level at 10 uM by Kinomescan method relative to control
[10] = biological target: SRSF protein kinase 3 (Homo sapiens) (UniProt Q9UPE1); test: Binding affinity to wild-type human partial length SRPK3 (P41 to P567 residues) expressed in bacterial expression system assessed as residual binding level at 10 uM by Kinomescan method relative to control
[11] = biological target: Activin receptor type-1 (Homo sapiens) (UniProt Q04771); test: Binding affinity to wild-type human ACVR1 (C188 to C509 residues) expressed in bacterial expression system assessed as residual binding level at 10 uM by Kinomescan method relative to control
[12] = biological target: Macrophage colony-stimulating factor 1 receptor (Homo sapiens) (UniProt P07333); test: Binding affinity to wild-type human partial length CSF1R (I564 to S939 residues) expressed in bacterial expression system assessed as residual binding level at 10 uM by Kinomescan method relative to control
[13] = biological target: NUAK family SNF1-like kinase 2 (Homo sapiens) (UniProt Q9H093); test: Binding affinity to wild-type human partial length SNARK (P22 to A333 residues) expressed in mammalian expression system assessed as residual binding level at 10 uM by Kinomescan method relative to control
[14] = biological target: Serine/threonine-protein kinase pim-1 (Homo sapiens) (UniProt P11309); test: Binding affinity to wild-type human partial length PIM1 (A15 to K313 residues) expressed in bacterial expression system assessed as residual binding level at 10 uM by Kinomescan method relative to control
[15] = biological target: Tyrosine-protein kinase receptor UFO (Homo sapiens) (UniProt P30530); test: Binding affinity to wild-type human partial length AXL (R497 to Y821 residues) expressed in bacterial expression system assessed as residual binding level at 10 uM by Kinomescan method relative to control
[16] = biological target: 3-phosphoinositide-dependent protein kinase 1 (Homo sapiens) (UniProt O15530); test: Binding affinity to wild-type human full length PDPK1 (M1 to Q556 residues) expressed in bacterial expression system assessed as residual binding level at 10 uM by Kinomescan method relative to control
[17] = biological target: cAMP-dependent protein kinase catalytic subunit PRKX (Homo sapiens) (UniProt P51817); test: Binding affinity to wild-type human partial length PRKX (M1 to F358 residues) expressed in bacterial expression system assessed as residual binding level at 10 uM by Kinomescan method relative to control
[18] = biological target: Calcium/calmodulin-dependent protein kinase type II subunit gamma (Homo sapiens) (UniProt Q13555); test: Binding affinity to wild-type human partial length CAMK2G (R9 to A303 residues) expressed in bacterial expression system assessed as residual binding level at 10 uM by Kinomescan method relative to control
[19] = biological target: Ribosomal protein S6 kinase alpha-5 (Homo sapiens) (UniProt O75582); test: Binding affinity to wild-type human partial length N- terminal RPS6KA5 kinase domain 1 expressed in bacterial expression system assessed as residual binding level at 10 uM by Kinomescan method relative to control
[20] = biological target: Mitogen-activated protein kinase kinase kinase 3 (Homo sapiens) (UniProt Q99759); test: Binding affinity to wild-type human partial length MAP3K3 (E320 to Y626 residues) expressed in mammalian expression system assessed as residual binding level at 10 uM by Kinomescan method relative to control
[21] = biological target: Mitogen-activated protein kinase kinase kinase 4 (Homo sapiens) (UniProt Q9Y6R4); test: Binding affinity to wild-type human partial length MAP3K4 (G1319 to E1608 residues) expressed in bacterial expression system assessed as residual binding level at 10 uM by Kinomescan method relative to control
[22] = biological target: Mitogen-activated protein kinase 11 (Homo sapiens) (UniProt Q15759); test: Binding affinity to wild-type human full length p38-beta (M1 to Q364 residues) expressed in bacterial expression system assessed as residual binding level at 10 uM by Kinomescan method relative to control
[23] = test system: Tyrosine-protein kinase ABL1 (Homo sapiens), P00519 [F317L]; test: Binding affinity to human non-phosphorylated ABL1 F317L mutant (S229 to K512 residues) expressed in mammalian expression system assessed as residual binding level at 10 uM by Kinomescan method relative to control
[24] = biological target: Serine/threonine-protein kinase 17B (Homo sapiens) (UniProt O94768); test: Binding affinity to wild-type human full length DRAK2 (M1 to C372 residues) expressed in bacterial expression system assessed as residual binding level at 10 uM by Kinomescan method relative to control

CC(C)N1C(=O)C(NCCCN(C)C)=C(c2cn(C)c3ccccc23)C1=O.Cl was tested. Which Activity [1] did it give?
Its Activity is 91%.

What about the Activity [2] of the same compound?
Its Activity is 98%.

And the Activity [3]?
The Activity was 76%.

What about the Activity [4] of the same compound?
The Activity was 100%.

And the Activity [5]?
The Activity was 93%.

And the Activity [6]?
Its Activity is 88%.

And the Activity [7]?
Its Activity is 98%.

And the Activity [8]?
Its Activity is 86%.

What about the Activity [9] of the same compound?
The Activity was 94%.

What about the Activity [10] of the same compound?
Its Activity is 100%.

What about the Activity [11] of the same compound?
Its Activity is 100%.

And the Activity [12]?
Its Activity is 97%.

And the Activity [13]?
The Activity was 79%.

And the Activity [14]?
Its Activity is 100%.

And the Activity [15]?
The Activity was 99%.

What about the Activity [16] of the same compound?
Its Activity is 89%.

And the Activity [17]?
The Activity was 88%.

And the Activity [18]?
Its Activity is 83%.

What about the Activity [19] of the same compound?
Its Activity is 97%.

And the Activity [20]?
The Activity was 100%.

What about the Activity [21] of the same compound?
The Activity was 85%.

And the Activity [22]?
The Activity was 96%.

And the Activity [23]?
The Activity was 84%.

And the Activity [24]?
Its Activity is 91%.
